Reference: US6469149B1 (priority 1997, dated 2002)

Columns and labels:
ascorbic acid synthesis = settings: literature statement; cited from earlier work
[1] = biological target: T1, L-galactono-γ-lactone dehydrogenase (Arabidopsis thaliana, UniProt Q9SU56); settings: literature (De Tullio et al. 1994; Arrigoni et al. 1996); cited from earlier work
T1 sequence (Q9SU56 102-610): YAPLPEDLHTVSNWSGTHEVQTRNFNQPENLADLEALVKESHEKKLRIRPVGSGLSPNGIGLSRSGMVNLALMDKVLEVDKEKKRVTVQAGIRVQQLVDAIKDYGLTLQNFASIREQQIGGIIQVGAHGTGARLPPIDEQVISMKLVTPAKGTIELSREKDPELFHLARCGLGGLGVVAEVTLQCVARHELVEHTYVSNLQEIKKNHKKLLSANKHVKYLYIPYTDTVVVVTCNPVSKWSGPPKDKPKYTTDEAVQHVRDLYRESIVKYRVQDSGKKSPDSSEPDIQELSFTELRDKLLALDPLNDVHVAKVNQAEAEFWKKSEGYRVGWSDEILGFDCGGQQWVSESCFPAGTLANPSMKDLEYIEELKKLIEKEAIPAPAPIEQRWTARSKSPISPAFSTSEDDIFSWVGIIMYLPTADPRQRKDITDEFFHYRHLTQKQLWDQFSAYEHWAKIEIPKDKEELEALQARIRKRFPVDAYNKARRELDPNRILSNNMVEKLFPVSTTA

[2] = biological target: T2, L-galactono-γ-lactone dehydrogenase (Brassica oleracea, UniProt O47881); test: GLDase activity in the presence of lycorine (reduction of cytochrome c, absorption at 550 nm); type: biochemical, cauliflower (Brassica olecera var. botrytis); parameters: Activity of the enzyme expressed in increase in absorption at 550 nm/second: scale not given here
T2 construct: The resulting mature protein of 509 amino acids has a calculated molecular mass of 57,837 Da; from tissue; host or cells: cauliflower florets (mitochondrial pellet, acetone-precipitated extract; DEAE, Phenyl Sepharose and Sephacryl gel filtration fractions)
T2 sequence (O47881 92-600): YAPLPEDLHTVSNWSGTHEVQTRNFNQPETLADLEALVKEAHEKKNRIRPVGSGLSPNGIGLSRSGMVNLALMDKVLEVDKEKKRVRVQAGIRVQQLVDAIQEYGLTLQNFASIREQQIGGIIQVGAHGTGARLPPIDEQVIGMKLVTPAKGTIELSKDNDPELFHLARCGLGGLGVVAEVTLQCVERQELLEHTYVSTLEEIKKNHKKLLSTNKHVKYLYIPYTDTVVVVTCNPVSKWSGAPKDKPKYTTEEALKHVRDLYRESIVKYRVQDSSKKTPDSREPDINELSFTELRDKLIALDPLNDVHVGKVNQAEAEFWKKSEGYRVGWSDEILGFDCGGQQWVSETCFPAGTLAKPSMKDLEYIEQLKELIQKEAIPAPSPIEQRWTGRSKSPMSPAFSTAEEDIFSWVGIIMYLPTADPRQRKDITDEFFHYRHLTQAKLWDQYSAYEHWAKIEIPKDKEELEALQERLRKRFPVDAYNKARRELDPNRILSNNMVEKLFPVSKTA
Method: The GLDase activity of the fractions was is determined spectrophotometrically by monitoring the L-galactono-γ-lactone dehydrogenase-dependent reduction of cytochrome c at 22° C. A typical reaction mixture contained the enzyme extract, 1.5 mg/ml cytochrome c and 4.2 mM L-galactono-γ-lactone in 0.05 M Tris-HCl buffer (pH 8.4). Reduction of cytochrome c was monitored by determining the absorption increase at 550 nm. Under these conditions the speed of the reaction was linear in respect of time for an initial period of 15 minutes. One unit of enzyme activity was defined as the quantity of enzyme reducing 2 μmol of cytochrome C per minute.
Lycorine was isolated from the plant Crinum asiaticum and the identity of the isolated product was verified by NMR, electron spray mass spectrometry HPLC analysis and capillary electrophoresis. Fractions of L-galactono-γ-lactone dehydrogenase activity isolated from the gel filtration column were tested for their activity in two different buffers in the presence of 5 or 50 μM lycorine (see table 3).

For O[C@H]1[C@H]2c3cc4c(cc3CN3CCC(=C[C@@H]1O)[C@H]23)OCO4 [lycorine], the “Concentration at which ascorbic acid synthesis is inhibited” value (ascorbic acid synthesis) is listed as no less than 1 µM, the “Inhibition of L-galactono-γ-lactone dehydrogenase” value [1] is listed as “inhibited” and the “Activity of the enzyme expressed in increase in absorption at 550 nm/second” value ([2]; 5 μM lycorine, 75 mM PO4 pH 7.0, 0 μM control 0.980) is listed as 0.857 absorption at 550 nm/second. For the same compound, the “Activity of the enzyme expressed in increase in absorption at 550 nm/second” value ([2]; 5 μM lycorine, 75 mM PO4 pH 7.5, 0 μM control 1.385) was 1.372 absorption at 550 nm/second, the “Activity of the enzyme expressed in increase in absorption at 550 nm/second” value ([2]; 5 μM lycorine, 75 mM PO4 pH 8, 0 μM control 1.882) was 1.690 absorption at 550 nm/second and the “Activity of the enzyme expressed in increase in absorption at 550 nm/second” value ([2]; 5 μM lycorine, 75 mM Tris pH 7.4, 0 μM control 3.627) was 3.927 absorption at 550 nm/second. The “Activity of the enzyme expressed in increase in absorption at 550 nm/second” value ([2]; 5 μM lycorine, 75 mM Tris pH 8.2, 0 μM control 6.365) was 6.400 absorption at 550 nm/second, the “Activity of the enzyme expressed in increase in absorption at 550 nm/second” value ([2]; 5 μM lycorine, 75 mM Tris pH 8.9, 0 μM control 5.438) was 5.199 absorption at 550 nm/second and the “Activity of the enzyme expressed in increase in absorption at 550 nm/second” value ([2]; 50 μM lycorine, 75 mM PO4 pH 7.0, 0 μM control 0.980) was 0.842 absorption at 550 nm/second. The “Activity of the enzyme expressed in increase in absorption at 550 nm/second” value ([2]; 50 μM lycorine, 75 mM PO4 pH 7.5, 0 μM control 1.385) was 1.254 absorption at 550 nm/second, the “Activity of the enzyme expressed in increase in absorption at 550 nm/second” value ([2]; 50 μM lycorine, 75 mM PO4 pH 8, 0 μM control 1.882) was 1.768 absorption at 550 nm/second and the “Activity of the enzyme expressed in increase in absorption at 550 nm/second” value ([2]; 50 μM lycorine, 75 mM Tris pH 7.4, 0 μM control 3.627) was 3.743 absorption at 550 nm/second. For the same compound, the “Activity of the enzyme expressed in increase in absorption at 550 nm/second” value ([2]; 50 μM lycorine, 75 mM Tris pH 8.2, 0 μM control 6.365) was 6.127 absorption at 550 nm/second, the “Activity of the enzyme expressed in increase in absorption at 550 nm/second” value ([2]; 50 μM lycorine, 75 mM Tris pH 8.9, 0 μM control 5.438) was 5.507 absorption at 550 nm/second and the “Effect on GLDase activity” value ([2]; 100 μM lycorine, additional tests) was “did not show a decrease in activity”. The “Effect on GLDase activity after pre-incubation” value ([2]; pre-incubation of one hour of the enzyme with lycorine) was “did not influence the enzyme activity” and the “Sensitivity of the isolated GLDase to lycorine” value ([2]; up to a concentration of 50 μM) was “lycorine-insensitive”.
